Data on nine compounds can be found in patent US8691757B2 (Bristol-Myers Squibb Company, priority 2011, dated 2014).

Assay [1] deals with HCV genotype 1b (Con1) replicon in HUH-7 cells. Put plainly: HCV replicon luciferase reporter assay, genotype 1b. Type of assay: cell-based. As to conditions: Hepatitis C virus, 72 h, HCV genotype 1b replicon, 3 days incubation, Renilla luciferase, range classes. The source says:
An HCV replicon whole cell system was established as described by Lohmann V, Korner F, Koch J, Herian U, Theilmann L, Bartenschlager R., Science 285(5424):110-3 (1999) and modified to introduce a luciferase reporter, as first described by Krieger et al (Krieger N, Lohmann V, and Bartenschlager R, J. Virol. 75(10):4614-4624 (2001)). CDNA encoding a humanized form of the Renilla luciferase gene and a linker sequence fused directly to the 3′-end of the luciferase gene were introduced into the replicon construct using an Asc1 restriction site located in core, directly upstream of the neomycin marker gene. The adaptive mutation at position 1179 (serine to isoleucine) was also introduced (Blight K J, Kolykhalov, A A, Rice, C M, Science 290(5498):1972-1974). A stable cell line constitutively expressing this HCV replicon construct was generated by first linearizing plasmid DNAs with ScaI. RNA transcripts were synthesized in vitro using the T7 MegaScript transcription kit (Ambion, Austin, Tex.) according to manufacturer's directions. In vitro transcripts of the cDNA were transfected into the human hepatoma cell line, HUH-7. […] Resulting cell lines were characterized for positive and negative strand RNA production and protein production over time. […]
(§1) HCV replicon luciferase assays were developed to monitor the inhibitory effects of compounds described in the disclosure on HCV genotypes 1a and 1b viral replication. HUH-7 cells, constitutively expressing the HCV replicon, were grown in Dulbecco's Modified Eagle Media (DMEM) (Gibco-BRL) containing 10% Fetal calf serum (FCS) (Sigma) and 1 mg/mL G418 (Gibco-BRL). Compounds were serially diluted 3 folds in DMSO for a twenty-point titration and subsequently transferred to sterile 384-well tissue-culture treated plates (Corning cat #3571). The plates were then seeded with 50 μL of cells at a density of 3.0×10^3 cells/well in DMEM containing 4% FCS (final DMSO concentration at 0.5%). After 3 days incubation at 37° C., cells were analyzed for Renilla Luciferase activity using the EnduRen as substrate (Promega cat #E6485). The EnduRen substrate was diluted in DMEM and then added to the plates to a final concentration of 7.5 μM. The plates were incubated for 2 hrs at 37° C. and then read immediately for 30 seconds with Viewlux Imager (PerkinElmer) using a luminescence program. To assess cytotoxicity of compounds, CC50 values were generated by multiplexing the EnduRen-containing plates with Cell Titer-Blue (Promega, cat #G8082). Cell-Titer Blue (3 μL) was added to each well and incubated for 8 hrs at 37° C. The fluorescence signal from each well was read, with an excitation wavelength at 525/10 nm and an emission wavelength of 598/10 nm, using the Viewlux Imager.
(§2) The EC50 values for compounds were calculated by using a four-parameter logistic equation: y=A+((B−A)/(1+((C/x)^D))), where A and B denotes minimal and maximal % inhibition, respectively, C is the EC50, D is the hill slope and x represents compound concentration.
A general note: Replicon systems follow genome replication, usually without infectious particles.

For assay [2], the system named is HCV genotype 1a (H77 strain) replicon in HUH-7 cells. Put plainly: HCV replicon luciferase reporter assay, genotype 1a. The note with it: Hepatitis C virus, 72 h, HCV genotype 1a replicon, 3 days incubation, Renilla luciferase, range classes. The class given is cell-based.
Source text: An HCV replicon whole cell system was established as described by Lohmann V, Korner F, Koch J, Herian U, Theilmann L, Bartenschlager R., Science 285(5424):110-3 (1999) and modified to introduce a luciferase reporter, as first described by Krieger et al (Krieger N, Lohmann V, and Bartenschlager R, J. Virol. 75(10):4614-4624 (2001)). CDNA encoding a humanized form of the Renilla luciferase gene and a linker sequence fused directly to the 3′-end of the luciferase gene were introduced into the replicon construct using an Asc1 restriction site located in core, directly upstream of the neomycin marker gene. The adaptive mutation at position 1179 (serine to isoleucine) was also introduced (Blight K J, Kolykhalov, A A, Rice, C M, Science 290(5498):1972-1974). A stable cell line constitutively expressing this HCV replicon construct was generated by first linearizing plasmid DNAs with ScaI. RNA transcripts were synthesized in vitro using the T7 MegaScript transcription kit (Ambion, Austin, Tex.) according to manufacturer's directions. In vitro transcripts of the cDNA were transfected into the human hepatoma cell line, HUH-7. […] Resulting cell lines were characterized for positive and negative strand RNA production and protein production over time.
A stable HCV replicon luciferase reporter cell line representing the genotype 1a H77 strain (Yanagi M, Purcell R H, Emerson S U, et al. Transcripts from a single full-length cDNA clone of hepatitis C virus are infectious when directly transfected into the liver of a chimpanzee. Proc Natl Acad Sci USA 1997; 94(16):8738-8743) was generated as described previously for the genotype 1b (Con1) replicon luciferase cell line. The replicon construct was modified by introducing mutations were introduced into the genes encoding the NS3 helicase domain (proline replaced by leucine at position 1496) and NS5A (serine to isoleucine at position 2204) to improve replication in cell culture.
as §1, §2

Turning to `COc1cnc(O[C@@H]2C[C@H]3C(=O)N[C@]4(C(=O)NS(=O)(=O)C5CC5)C[C@H]4/C=C\[C@H](C)CCC[C@@H](C)[C@H](NC(=O)OC(C)(C)C)C(=O)N3C2)c2cc(F)ccc12` [Compound 23, tert-butyl (2R,6S,7R,11R,13aS,14aR,16aS,Z)-14a-(cyclopropylsulfonylcarbamoyl)-2-(7-fluoro-4-methoxyisoquinolin-1-yloxy)-7,11-dimethyl-5,16-dioxo-1,2,3,5,6,7,8,9,10,11,13a,14,14a,15,16,16a-hexadecahydrocyclopropa[e]pyrrolo[1,2-a][1,4]diazacyclopentadecin-6-ylcarbamate], the EC50 in assay [1] and in assay [2] was 5.01 to 68 nM each time.

With `COc1cnc(O[C@@H]2C[C@H]3C(=O)N[C@]4(C(=O)NS(=O)(=O)C5CC5)C[C@H]4/C=C\[C@@H](C)CCC[C@@H](C)[C@H](NC(=O)OC(C)(C)C(F)(F)F)C(=O)N3C2)c2cccc(Cl)c12` [Compound 8, 1,1,1-trifluoro-2-methylpropan-2-yl (2R,6S,7R,11S,13aS,14aR,16aS,Z)-2-(5-chloro-4-methoxyisoquinolin-1-yloxy)-14a-(cyclopropylsulfonylcarbamoyl)-7,11-dimethyl-5,16-dioxo-1,2,3,5,6,7,8,9,10,11,13a,14,14a,15,16,16a-hexadecahydrocyclopropa[e]pyrrolo[1,2-a][1,4]diazacyclopentadecin-6-ylcarbamate], the 50% effective concentration (EC50) in assay [1] was 1.01 to 2 nM; in assay [2] it was 2.01 to 5 nM.

Take `COc1ccc2nc(O[C@@H]3C[C@H]4C(=O)N[C@]5(C(=O)NS(=O)(=O)C6CC6)C[C@H]5/C=C\[C@@H](C)CCC[C@@H](C)[C@H](NC(=O)OC(C)(C)C)C(=O)N4C3)cnc2c1` [Compound 27, tert-butyl (2R,6S,7R,11S,13aS,14aR,16aS,Z)-14a-(cyclopropylsulfonylcarbamoyl)-2-(6-methoxyquinoxalin-2-yloxy)-7,11-dimethyl-5,16-dioxo-1,2,3,5,6,7,8,9,10,11,13a,14,14a,15,16,16a-hexadecahydrocyclopropa[e]pyrrolo[1,2-a][1,4]diazacyclopentadecin-6-ylcarbamate]: the EC50 in assay [1] and in assay [2] was 5.01 to 68 nM throughout.

As to `COc1ccc2c(O[C@@H]3C[C@H]4C(=O)N[C@]5(C(=O)NS(=O)(=O)C6CC6)C[C@H]5/C=C\[C@H](C)CCC[C@@H](C)[C@H](NC(=O)OC(C)(C)C(F)(F)F)C(=O)N4C3)ncc(OC)c2c1` [Compound 22, 1,1,1-trifluoro-2-methylpropan-2-yl (2R,6S,7R,11R,13aS,14aR,16aS,Z)-14a-(cyclopropylsulfonylcarbamoyl)-2-(4,6-dimethoxyisoquinolin-1-yloxy)-7,11-dimethyl-5,16-dioxo-1,2,3,5,6,7,8,9,10,11,13a,14,14a,15,16,16a-hexadecahydrocyclopropa[e]pyrrolo[1,2-a][1,4]diazacyclopentadecin-6-ylcarbamate], the EC50 lay in the range of 0.2 to 1 nM in assay [1] and 1.01 to 2 nM in assay [2].

With `CCOc1cnc(O[C@@H]2C[C@H]3C(=O)N[C@]4(C(=O)NS(=O)(=O)C5(C)CC5)C[C@H]4/C=C\[C@H](C)CCC[C@@H](C)[C@H](NC(=O)OC(C)(C)C(F)(F)F)C(=O)N3C2)c2ccccc12` [Compound 19, 1,1,1-trifluoro-2-methylpropan-2-yl (2R,6S,7R,11R,13aS,14aR,16aS,Z)-2-(4-ethoxyisoquinolin-1-yloxy)-7,11-dimethyl-14a-(1-methylcyclopropylsulfonylcarbamoyl)-5,16-dioxo-1,2,3,5,6,7,8,9,10,11,13a,14,14a,15,16,16a-hexadecahydrocyclopropa[e]pyrrolo[1,2-a][1,4]diazacyclopentadecin-6-ylcarbamate], the EC50 lay within 1.01 to 2 nM in assay [1] and 2.01 to 5 nM in assay [2].

Regarding `COc1cnc(O[C@@H]2C[C@H]3C(=O)N[C@]4(C(=O)NS(=O)(=O)C5CC5)C[C@H]4/C=C\[C@H](C)CCC[C@@H](C)[C@H](NC(=O)OC(C)(C)C(F)(F)F)C(=O)N3C2)c2cc(F)ccc12` [Compound 24, 1,1,1-trifluoro-2-methylpropan-2-yl (2R,6S,7R,11R,13aS,14aR,16aS,Z)-14a-(cyclopropylsulfonylcarbamoyl)-2-(7-fluoro-4-methoxyisoquinolin-1-yloxy)-7,11-dimethyl-5,16-dioxo-1,2,3,5,6,7,8,9,10,11,13a,14,14a,15,16,16a-hexadecahydrocyclopropa[e]pyrrolo[1,2-a][1,4]diazacyclopentadecin-6-ylcarbamate], the EC50 in assay [1] and in assay [2] was 5.01 to 68 nM throughout.

As for `COc1cc2c(OC)cnc(O[C@@H]3C[C@H]4C(=O)N[C@]5(C(=O)NS(=O)(=O)C6(C)CC6)C[C@H]5/C=C\[C@H](C)CCC[C@@H](C)[C@H](NC(=O)OC(C)(C)C(F)(F)F)C(=O)N4C3)c2cc1F` [Compound 15, 1,1,1-trifluoro-2-methylpropan-2-yl (2R,6S,7R,11R,13aS,14aR,16aS,Z)-2-(7-fluoro-4,6-dimethoxyisoquinolin-1-yloxy)-7,11-dimethyl-14a-(1-methylcyclopropylsulfonylcarbamoyl)-5,16-dioxo-1,2,3,5,6,7,8,9,10,11,13a,14,14a,15,16,16a-hexadecahydrocyclopropa[e]pyrrolo[1,2-a][1,4]diazacyclopentadecin-6-ylcarbamate], the EC50 in assay [1] and in assay [2] was 1.01 to 2 nM throughout.

Take `COc1cc2c(OC)cnc(O[C@@H]3C[C@H]4C(=O)N[C@]5(C(=O)NS(=O)(=O)C6CC6)C[C@H]5/C=C\[C@H](C)CCC[C@@H](C)[C@H](NC(=O)OC(C)(C)C(F)(F)F)C(=O)N4C3)c2cc1F` [Compound 33, 1,1,1-trifluoro-2-methylpropan-2-yl (2R,6S,7R,11R,13aS,14aR,16aS,Z)-14a-(cyclopropylsulfonylcarbamoyl)-2-(7-fluoro-4,6-dimethoxyisoquinolin-1-yloxy)-7,11-dimethyl-5,16-dioxo-1,2,3,5,6,7,8,9,10,11,13a,14,14a,15,16,16a-hexadecahydrocyclopropa[e]pyrrolo[1,2-a][1,4]diazacyclopentadecin-6-ylcarbamate]: the EC50 in assay [1] was 1.01 to 2 nM; in assay [2], 2.01 to 5 nM.

In the case of `COc1ccc2nc(O[C@@H]3C[C@H]4C(=O)N[C@]5(C(=O)NS(=O)(=O)C6CC6)C[C@H]5/C=C\[C@H](C)CCC[C@@H](C)[C@H](NC(=O)OC(C)(C)C(F)(F)F)C(=O)N4C3)cnc2c1` [Compound 32, 1,1,1-trifluoro-2-methylpropan-2-yl (2R,6S,7R,11R,13aS,14aR,16aS,Z)-14a-(cyclopropylsulfonylcarbamoyl)-2-(6-methoxyquinoxalin-2-yloxy)-7,11-dimethyl-5,16-dioxo-1,2,3,5,6,7,8,9,10,11,13a,14,14a,15,16,16a-hexadecahydrocyclopropa[e]pyrrolo[1,2-a][1,4]diazacyclopentadecin-6-ylcarbamate], the EC50 in assay [1] and in assay [2] was 5.01 to 68 nM each time.

What is called EC50 is the concentration at which the effect is half-maximal. High values mean weaker potency, low ones greater potency.
